Experimental data from PubChem BioAssay (NCI).
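Dose response: 5 concentrations. Exposure: 48 h. Format: 96-well plates. Endpoint: linear interpolation; highest concentration if not reached. TGI is the concentration that stops growth completely.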

Columns and labels:
Experiment in all cases: NCI-60 cell line screen, 48 h
[1] = tested on: 786-0 renal
[2] = tested on: SF-268 CNS
[3] = tested on: NCI-H23 lung
[4] = tested on: ACHN renal
[5] = tested on: SK-OV-3 ovarian
[6] = tested on: HS 578T breast
[7] = tested on: HCT-116 colon
[8] = tested on: A549 NSCLC
[9] = tested on: EKVX NSCLC
[10] = tested on: MALME-3M melanoma

Measured: TGI

O=c1cccc2n1CC1CNCC2C1 (stereo not given)
> 100 µM: all assays above

Cn1c2ccccc2c2c3c(=O)[nH][nH]c(=O)c3c3c4ccccc4n(C)c3c21
> 100 µM: all assays above

Brc1ccc(/C(N=N/C(=N\Sc2ccccc2)c2ccc(Br)cc2)=N/Sc2ccccc2)cc1
> 100 µM: all assays above

CCC(C)C(NC(=O)C(CCCC[N+](=N)N)NC(=O)C(CCCC[N+](=N)N)NC(=O)c1ccc(OC)cc1)C(=O)NC(CCCC[N+](=N)N)C(=O)N1CCCC1C(=O)NC(CCCCN)C(=O)NC(CC(C)C)C(N)=O (stereo not given)
> 100 µM: all assays above

CC12CCC(=O)[C@@]1(C)CCCC2=O (stereo not given in full)
> 100 µM: all assays above

O=C1CCC(CCc2nc3ccccc3[nH]2)(c2ccccc2)C(=O)N1 (stereo not given)
> 100 µM: all assays above

O/N=C/[C@H]1COC2(CCCCC2)O1
> 100 µM: all assays above
